PubChem BioAssay (NCI)
Several values for one entry are separate records, joined by “and”; a condition that tells them apart may be missing. Equal entries are not always repeated.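 Test compounds were applied to cells in 96-well plates for 48 hours at 5 doses. GI50: concentration for 50% inhibition of growth. TGI denotes the concentration required for complete inhibition of growth.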

Assays:
Assay in all cases: growth of human tumour cells (NCI), 48 h
MALME-3M melanoma = test system: MALME-3M melanoma
TK-10 renal = test system: TK-10 renal
OVCAR-4 ovarian = test system: OVCAR-4 ovarian
SNB-78 CNS = test system: SNB-78 CNS
OVCAR-8 ovarian = test system: OVCAR-8 ovarian
UACC-257 melanoma = test system: UACC-257 melanoma
HCT-15 colon = test system: HCT-15 colon
HL-60(TB) leukemia = test system: HL-60(TB) leukemia
ACHN renal = test system: ACHN renal
SNB-75 CNS = test system: SNB-75 CNS
UO-31 renal = test system: UO-31 renal
HT29 colon = test system: HT29 colon
M14 melanoma = test system: M14 melanoma
LOX IMVI melanoma = test system: LOX IMVI melanoma
SF-295 CNS = test system: SF-295 CNS
NCI-H460 lung = test system: NCI-H460 lung
KM12 colon = test system: KM12 colon
DLD-1 colon = test system: DLD-1 colon
DMS 273 small cell lung = test system: DMS 273 small cell lung
HOP-62 NSCLC = test system: HOP-62 NSCLC
OVCAR-5 ovarian = test system: OVCAR-5 ovarian
UACC-62 melanoma = test system: UACC-62 melanoma
HCC-2998 colon = test system: HCC-2998 colon
U251 CNS = test system: U251 CNS
COLO 205 colon = test system: COLO 205 colon
DMS 114 small cell lung = test system: DMS 114 small cell lung
NCI-H226 lung = test system: NCI-H226 lung
RPMI-8226 leukemia = test system: RPMI-8226 leukemia
OVCAR-3 ovarian = test system: OVCAR-3 ovarian
SN12C renal = test system: SN12C renal
CAKI-1 renal = test system: CAKI-1 renal
786-0 renal = test system: 786-0 renal
MOLT-4 leukemia = test system: MOLT-4 leukemia
SF-539 CNS = test system: SF-539 CNS
RXF-631 renal = test system: RXF-631 renal
NCI-H23 lung = test system: NCI-H23 lung
K-562 leukemia = test system: K-562 leukemia
SW-620 colon = test system: SW-620 colon
IGROV1 ovarian = test system: IGROV1 ovarian
CCRF-CEM leukemia = test system: CCRF-CEM leukemia
SK-MEL-28 melanoma = test system: SK-MEL-28 melanoma
LXFL 529 NSCLC = test system: LXFL 529 NSCLC
HOP-18 NSCLC = test system: HOP-18 NSCLC
RXF 393 renal = test system: RXF 393 renal
KM20L2 colon = test system: KM20L2 colon
SK-OV-3 ovarian = test system: SK-OV-3 ovarian
EKVX NSCLC = test system: EKVX NSCLC
SK-MEL-2 melanoma = test system: SK-MEL-2 melanoma
M19-MEL melanoma = test system: M19-MEL melanoma
SF-268 CNS = test system: SF-268 CNS
SK-MEL-5 melanoma = test system: SK-MEL-5 melanoma
A549 NSCLC = test system: A549 NSCLC
HOP-92 NSCLC = test system: HOP-92 NSCLC
A498 renal = test system: A498 renal
HCT-116 colon = test system: HCT-116 colon
XF 498 CNS = test system: XF 498 CNS

O=C1[C@@H]2C(c3ccncc3)=NO[C@@H]2C(=O)N1c1ccc(Cc2ccc(N3C(=O)[C@H]4C(c5ccncc5)=NO[C@H]4C3=O)cc2)cc1
TGI (MALME-3M melanoma): > 100 µM
TGI (TK-10 renal): > 100 µM
TGI (OVCAR-4 ovarian): > 100 µM
TGI (SNB-78 CNS): > 100 µM
TGI (OVCAR-8 ovarian): > 100 µM
TGI (UACC-257 melanoma): > 100 µM
TGI (HCT-15 colon): > 100 µM
TGI (HL-60(TB) leukemia): > 100 µM
TGI (ACHN renal): > 100 µM
TGI (SNB-75 CNS): > 100 µM
TGI (UO-31 renal): > 100 µM
TGI (HT29 colon): > 100 µM
TGI (M14 melanoma): > 100 µM
TGI (LOX IMVI melanoma): > 100 µM
TGI (SF-295 CNS): > 100 µM
TGI (NCI-H460 lung): > 100 µM
TGI (KM12 colon): > 100 µM
TGI (DLD-1 colon): > 100 µM
TGI (DMS 273 small cell lung): > 100 µM
TGI (HOP-62 NSCLC): > 100 µM
TGI (OVCAR-5 ovarian): > 100 µM
TGI (UACC-62 melanoma): > 100 µM
TGI (HCC-2998 colon): > 100 µM
TGI (U251 CNS): > 100 µM
TGI (COLO 205 colon): > 100 µM
TGI (DMS 114 small cell lung): > 100 µM
TGI (NCI-H226 lung): > 100 µM
TGI (RPMI-8226 leukemia): > 100 µM
TGI (OVCAR-3 ovarian): > 100 µM
TGI (SN12C renal): > 100 µM
TGI (CAKI-1 renal): > 100 µM
TGI (786-0 renal): > 100 µM
TGI (MOLT-4 leukemia): > 100 µM
TGI (SF-539 CNS): > 100 µM
TGI (RXF-631 renal): > 100 µM
TGI (NCI-H23 lung): > 100 µM
TGI (K-562 leukemia): > 100 µM
TGI (SW-620 colon): > 100 µM
TGI (IGROV1 ovarian): > 100 µM
TGI (CCRF-CEM leukemia): > 100 µM
TGI (SK-MEL-28 melanoma): > 100 µM
TGI (LXFL 529 NSCLC): > 100 µM
TGI (HOP-18 NSCLC): > 100 µM
TGI (RXF 393 renal): > 100 µM
TGI (KM20L2 colon): > 100 µM
TGI (SK-OV-3 ovarian): > 100 µM
TGI (EKVX NSCLC): > 100 µM
TGI (SK-MEL-2 melanoma): > 100 µM
TGI (M19-MEL melanoma): > 100 µM
TGI (SF-268 CNS): > 100 µM
TGI (SK-MEL-5 melanoma): > 100 µM
TGI (A549 NSCLC): > 100 µM
TGI (HOP-92 NSCLC): > 100 µM
TGI (A498 renal): > 100 µM

CC(=O)OCC1OC(n2c(=S)n(-c3ccccc3)c(=S)c3ccccc32)C(OC(C)=O)C(OC(C)=O)C1OC(C)=O (stereo not drawn)
TGI (TK-10 renal): > 100 µM
TGI (SNB-75 CNS): > 100 µM
TGI (UO-31 renal): > 100 µM
TGI (M14 melanoma): > 100 µM
GI50 (LOX IMVI melanoma): 60.4 µM and 19.7 µM
TGI (LOX IMVI melanoma): > 100 µM
GI50 (CAKI-1 renal): 50.7 µM and 20 µM
TGI (CAKI-1 renal): > 100 µM
TGI (786-0 renal): > 100 µM
TGI (SF-539 CNS): > 100 µM
TGI (RXF-631 renal): > 100 µM
TGI (HCT-116 colon): > 100 µM
GI50 (LXFL 529 NSCLC): 62.3 µM and 8.58 µM
TGI (LXFL 529 NSCLC): > 100 µM
TGI (HOP-18 NSCLC): > 100 µM
GI50 (RXF 393 renal): 38.4 µM and 4.04 µM
TGI (RXF 393 renal): > 100 µM
GI50 (SK-MEL-2 melanoma): 78.6 µM and > 35.8 µM
TGI (SK-MEL-2 melanoma): > 100 µM
GI50 (XF 498 CNS): 28.3 µM and 4.4 µM
TGI (XF 498 CNS): > 100 µM
GI50 (SF-268 CNS): 77.9 µM and 9.64 µM
TGI (SF-268 CNS): > 100 µM
TGI (HOP-92 NSCLC): > 100 µM
